Laboratory results reported in patent EP3466279B1, “PRODUCTION METHOD OF COMPOSITION USING INSECT AS A RAW MATERIAL” (National University Corporation Ehime University, priority 2016, dated 2017).

Key:
[1] = system: mouse macrophage cell line (RAW264 cells); test: Immunosuppressive action: inhibition of LPS-induced nitrogen monoxide production; assay type: cell-based; details: LPS 100 ng/mL; 1,2-benzenediol 0 µg/mL to 10 µg/mL; FIG. 4
Description: A substance contained in Antheraea yamamai pupae and Bombyx mori pupae and having an immunosuppressive action on humans or animals having ate the insects was identified. Distilled water was added to a dry powder of Antheraea yamamai pupae and a dried powder of Bombyx mori pupae and the mixture was stirred and centrifugally separated to obtain the supernatant. Ethyl acetate was added to the resultant supernatant to cause liquid-liquid partition, and the resultant ethyl acetate layer was evaporated to dryness by distilling off the solvent with a rotary evaporator. Distilled water was added to the residue, which was added to a C18 solid phase column, and the flow-through fraction was recovered. The resultant flow-through fraction was eluted with high performance liquid chromatography (Develosil C30 column), and the immunosuppressive action of each eluted fraction obtained was measured. […]
Whether 1,2-benzenediol identified from Antheraea yamamai pupae and Bombyx mori pupae has an immunosuppressive action or not was evaluated by the production of nitrogen monoxide from a mouse macrophage cell line (RAW264 cells) as an indicator.

[2] = system: mouse macrophage cell line (RAW264 cells); assay type: cell-based

`Oc1ccccc1O` [1,2-benzenediol] was tested, and the “inhibition of nitrogen monoxide production” value [1] was “inhibition of nitrogen monoxide production was observed depending on the concentration” and the “growth inhibition of a mouse macrophage cell line (concentration at which confirmed)” value [2] was no less than 1 µg/mL.
